Results as given in PMC4533898 (Biochemistry, 2015).

Experiments:
[1] = biological target: Progesterone receptor membrane component 1 (hPGRMC1) (Homo sapiens, UniProt O00264, Y164H); assay: UV-vis; assay type: binding
[2] = biological target: Progesterone receptor membrane component 1 (hPGRMC1) (Homo sapiens, UniProt O00264, Y164F); assay: UV-vis spectroscopy; assay type: binding
Sequence of Progesterone receptor membrane component 1 (hPGRMC1) (Homo sapiens, UniProt O00264, Y164F) (O00264 71-195 Y164F): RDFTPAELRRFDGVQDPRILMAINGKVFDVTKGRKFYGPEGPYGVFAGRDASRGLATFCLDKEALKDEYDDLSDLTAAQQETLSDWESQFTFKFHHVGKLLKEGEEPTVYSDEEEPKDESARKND

Sequence of Progesterone receptor membrane component 1 (hPGRMC1) (Homo sapiens, UniProt O00264, Y164H) (O00264 71-195 Y164H): as the sequence (O00264 71-195 Y164F) above, with F94H counted along it

heme
% of WT heme binding [1]: ~ 90 % of WT heme binding | % of WT heme binding [2]: ~ 15 % of WT heme binding
